Experimental data taken from patent US6699880B1 (priority 1999, dated 2004).

What follows are compounds tested against T1, human m4 receptor (Homo sapiens, UniProt P08173). Settings: 0.01 µM.
T1 construct: expressed in transfected cells
T1 sequence (P08173 1-479): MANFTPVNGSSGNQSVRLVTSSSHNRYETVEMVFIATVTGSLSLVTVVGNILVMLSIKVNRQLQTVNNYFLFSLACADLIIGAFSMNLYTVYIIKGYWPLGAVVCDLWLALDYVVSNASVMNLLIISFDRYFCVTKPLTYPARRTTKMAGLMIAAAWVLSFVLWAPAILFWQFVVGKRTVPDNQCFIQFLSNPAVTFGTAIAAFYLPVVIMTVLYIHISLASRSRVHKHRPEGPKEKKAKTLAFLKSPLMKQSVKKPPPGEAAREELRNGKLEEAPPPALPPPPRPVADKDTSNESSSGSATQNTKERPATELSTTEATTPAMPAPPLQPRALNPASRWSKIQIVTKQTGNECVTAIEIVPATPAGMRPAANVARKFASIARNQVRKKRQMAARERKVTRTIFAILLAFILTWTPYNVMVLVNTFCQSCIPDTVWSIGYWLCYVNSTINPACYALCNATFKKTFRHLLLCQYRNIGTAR
Format: cell-based

In order of rising “Agonist Activity (%) (M4 Receptors-Stimulating Activity)” value:
1. COC(=O)N1CCC(N2CCC(n3c(=O)n(CC(F)(F)F)c4ccccc43)CC2)CC1 [Example 5, 1-[1-(1-methoxycarbonylpiperidin-4-yl)-piperidin-4-yl]-3-(2,2,2-trifluoroethyl)-1,3-dihydro-2H-benzimidazol-2-one]  90%
2. C#CCn1c(=O)n(C2CCN(C3CCN(C(=O)OC)CC3)CC2)c2ccccc21 [Example 1, 1-[1-(1-methoxycarbonylpiperidin-4-yl)-piperidin-4-yl]-3-(2-propinyl)-1,3-dihydro-2H-benzimidazol-2-one]  91%
3. COC(=O)Cn1c(=O)n(C2CCN(C3CCN(C(=O)OC)CC3)CC2)c2ccccc21 [Example 6, 1-[1-(1-methoxycarbonylpiperidin-4-yl)-piperidin-4-yl]-3-(methoxycarbonylmethyl)-1,3-dihydro-2H-benzimidazol-2-one]  92%
4. CCOC(=O)N1CCC(N2CCC(n3c(=O)n(S(C)(=O)=O)c4ccccc43)CC2)CC1 [Example 20, 1-[1-(1-ethoxycarbonylpiperidin-4-yl)-piperidin-4-yl]-3-(methylsulfonyl)-1,3-dihydro-2H-benzimidazol-2-one]  94%
5. COC(=O)N1CCC(N2CCC(n3c(=O)n(CCN)c4ccccc43)CC2)CC1 [Example 8, 1-[1-(1-methoxycarbonylpiperidin-4-yl)-piperidin-4-yl]-3-(2-aminoethyl)-1,3-dihydro-2H-benzimidazol-2-one]  95%
6. COC(=O)N1CCC(N2CCC(n3c(=O)n(C(C)=O)c4ccccc43)CC2)CC1 [Example 12, 1-[1-(1-methoxycarbonylpiperidin-4-yl)-piperidin-4-yl]-3-acetyl-1,3-dihydro-2H-benzimidazol-2-one]  95%
7. C=CCn1c(=O)n(C2CCN(C3CCN(C(=O)OC)CC3)CC2)c2ccccc21 [Example 2, 1-[1-(1-methoxycarbonylpiperidin-4-yl)-piperidin-4-yl]-3-(2-propenyl)-1,3-dihydro-2H-benzimidazol-2-one]  96%
8. COC(=O)N1CCC(N2CCC(n3c(=O)n(C)c4ccccc43)CC2)CC1 [Example 4, 1-[1-(1-methoxycarbonylpiperidin-4-yl)-piperidin-4-yl]-3-methyl-1,3-dihydro-2H-benzimidazol-2-one]  96%
9. COC(=O)N1CCC(N2CCC(n3c(=O)n(CC(C)=O)c4ccccc43)CC2)CC1 [Example 7, 1-[1-(1-methoxycarbonylpiperidin-4-yl)-piperidin-4-yl]-3-(2-oxopropyl)-1,3-dihydro-2H-benzimidazol-2-one]  97%
10. CCCCn1c(=O)n(C2CCN(C3CCN(C(=O)OC)CC3)CC2)c2ccccc21 [Example 3, 1-[1-(1-methoxycarbonylpiperidin-4-yl)-piperidin-4-yl]-3-n-butyl-1,3-dihydro-2H-benzimidazol-2-one]  101%
